Experimental data published in patent US20180201592A1, “2-AMINO-1,3,4-THIADIAZINE AND 2-AMINO-1,3,4-OXADIAZINE BASED ANTIFUNGAL AGENTS” (F2G Limited, priority 2015, published 2018).

Legend:
Settings in all cases: banded MIC grade
C. parapsilosis = assay: Minimum inhibitory concentration, RPMI medium; assay type: cell-based
Protocol: (§1) The compound was dissolved in DMSO to give a solution containing 5 mg/mL. Tubes were stored at −20° C. until required. On the day of testing thawed solutions were vortex mixed to ensure homogeneity. 30 μL of solution was removed and added to 570 μL of sterile water in a separate sterile Eppendorf. The thoroughly mixed solution was used to prepare a series of doubling dilutions in water, in a deep well plate. Thirteen replicate plates were prepared using a Minitrak by aspirating 20 μL from each well into eleven clear polystyrene 96 well plates. Assays were also performed in RPMI medium (Roswell Park Memorial Media 1640). To perform MIC tests in this medium, dilutions of compounds are prepared in microtitre plates as described above. […] All plates were incubated for 24-48 hrs at 35° C. Growth was assessed by monitoring the optical density at 485 nm for each well. […] The following organisms were tested: […]

C. tropicalis = assay: Minimum inhibitory concentration, RPMI medium; assay type: cell-based
Protocol: as §1

C. albicans = assay: Minimum inhibitory concentration, RPMI medium; assay type: cell-based
Protocol: as §1

A. fumigatus 210 = assay: Minimum inhibitory concentration, YAG medium; assay type: cell-based, Aspergillus fumigatus
Protocol: (§2) Between 1 and 5 mgs of compound were accurately weighed out into a sterile Eppendorf tube. The compound was dissolved in DMSO to give a solution containing 5 mg/mL. Tubes were stored at −20° C. until required.
(§3) On the day of testing thawed solutions were vortex mixed to ensure homogeneity. 30 μL of solution was removed and added to 570 μL of sterile water in a separate sterile Eppendorf. The thoroughly mixed solution was used to prepare a series of doubling dilutions in water, in a deep well plate. Thirteen replicate plates were prepared using a Minitrak by aspirating 20 μL from each well into eleven clear polystyrene 96 well plates.
(§4) Spores of Aspergillus spp. (Aspergillus fumigatus [two strains], Aspergillus terreus [two strains], Aspergillus niger and Aspergillus flavus) were harvested from cultures grown on Sabarauds agar for 5 days, and resuspended in PBS/Tween 80 to approx 1×10^7 cfu/mL. Each organism suspension was diluted in YAG medium (1% glucose, 1% ammonium chloride and 0.5% yeast extract) to 0.5-2×10^4cfu/mL. 80 μL of an organism suspension was added to each well of the plate containing drug dilutions.
(§5) This typically produced MIC plates with a drug range 50-0.05 mg/L and organism inocula of 1-2×10^4 cfu/mL for Aspergillus spp. All plates were incubated for 24 hrs at 35° C. Growth was assessed by monitoring the optical density at 485 nm for each well. The MIC of a compound is the lowest drug concentration that inhibits growth of an organism by >70% compared with a drug free control. MICs are recorded as mg/L. In cases where the MIC of an organism is […] the MIC is repeated using a concentration range of 0.5-0.0005 mg/L.

A. terreus 49 = assay: Minimum inhibitory concentration, YAG medium; assay type: cell-based, Aspergillus terreus
Protocol: (§6) The compound was dissolved in DMSO to give a solution containing 5 mg/mL. Tubes were stored at −20° C. until required. On the day of testing thawed solutions were vortex mixed to ensure homogeneity. 30 μL of solution was removed and added to 570 μL of sterile water in a separate sterile Eppendorf. The thoroughly mixed solution was used to prepare a series of doubling dilutions in water, in a deep well plate. Thirteen replicate plates were prepared using a Minitrak by aspirating 20 μL from each well into eleven clear polystyrene 96 well plates. Spores of Aspergillus spp. […] All plates were incubated for 24 hrs at 35° C. Growth was assessed by monitoring the optical density at 485 nm for each well. […] MICs are recorded as mg/L.

Aspergillus flavus = assay: Minimum inhibitory concentration, YAG medium; assay type: cell-based
Protocol: as §6

Aspergillus niger = assay: Minimum inhibitory concentration, YAG medium; assay type: cell-based
Protocol: as §6

Aspergillus terreus = assay: Minimum inhibitory concentration, YAG medium; assay type: cell-based
Protocol: as §6

Aspergillus fumigatus = assay: Minimum inhibitory concentration, YAG medium; assay type: cell-based
Protocol: as §2, §3, §4, §5

Structure (SMILES) | MIC grade, C. PARAPSILOSIS, RPMI media (C. parapsilosis) | MIC grade, C. TROPICALIS, RPMI media (C. tropicalis) | MIC grade, C. ALBICANS, RPMI media (C. albicans) | MIC grade, A. FUMIGATUS 210, YAG media (A. fumigatus 210) | MIC grade, A. TERREUS 49, YAG media (A. terreus 49) | MIC grade, A. FLAVUS, YAG media (Aspergillus flavus) | MIC grade, A. NIGER, YAG media (Aspergillus niger) | MIC grade, A. TERREUS, YAG media (Aspergillus terreus) | MIC grade, A. FUMIGATUS, YAG media (Aspergillus fumigatus)
Cc1ccc(OCCC2=NN=C(N)SC2)cc1 | 4 (4: <1 mg/L) | 2 (2: 5-20 mg/L) | 1 (1: ≥20 mg/L) | 4 (4: <0.2 mg/L) | 3 (3: 0.2-1 mg/L) | 3 (3: 0.2-1 mg/L) | 3 (3: 0.2-1 mg/L) | 3 (3: 0.2-1 mg/L) | 3 (3: 0.2-1 mg/L)
NC1=NN=C(CCOc2ccc(-c3ccccc3)cc2)CS1 | 1 (1: ≥20 mg/L) | 1 (1: ≥20 mg/L) | 1 (1: ≥20 mg/L) | 1 (1: ≥5 mg/L) | 2 (2: 1-5 mg/L) | 2 (2: 1-5 mg/L) | 2 (2: 1-5 mg/L) | 2 (2: 1-5 mg/L) | 1 (1: ≥5 mg/L)
NC1=NN=C(CCCOc2ccccc2)CS1 | 4 (4: <1 mg/L) | 3 (3: 1-5 mg/L) | 2 (2: 5-20 mg/L) | 4 (4: <0.2 mg/L) | 3 (3: 0.2-1 mg/L) | 4 (4: <0.2 mg/L) | 4 (4: <0.2 mg/L) | 4 (4: <0.2 mg/L) | 4 (4: <0.2 mg/L)
NC1=NN=C(CCCCOc2ccccc2)CS1 | 4 (4: <1 mg/L) | 3 (3: 1-5 mg/L) | 4 (4: <1 mg/L) | 3 (3: 0.2-1 mg/L) | 4 (4: <0.2 mg/L) | 4 (4: <0.2 mg/L) | 4 (4: <0.2 mg/L) | 4 (4: <0.2 mg/L) | 3 (3: 0.2-1 mg/L)
NC1=NN=C(CCCCCCOc2ccccc2)CS1 | 4 (4: <1 mg/L) | 4 (4: <1 mg/L) | 3 (3: 1-5 mg/L) | 4 (4: <0.2 mg/L) | 4 (4: <0.2 mg/L) | 4 (4: <0.2 mg/L) | 4 (4: <0.2 mg/L) | 4 (4: <0.2 mg/L) | 4 (4: <0.2 mg/L)
NC1=NN=C(CCCCCCc2ccccc2)CS1 | 4 (4: <1 mg/L) | 3 (3: 1-5 mg/L) | 2 (2: 5-20 mg/L) | 4 (4: <0.2 mg/L) | 3 (3: 0.2-1 mg/L) | 4 (4: <0.2 mg/L) | 4 (4: <0.2 mg/L) | 4 (4: <0.2 mg/L) | 4 (4: <0.2 mg/L)
COCC1=NN=C(N)SC1 | 2 (2: 5-20 mg/L) | 2 (2: 5-20 mg/L) | 2 (2: 5-20 mg/L) | 2 (2: 1-5 mg/L) | 2 (2: 1-5 mg/L) | 2 (2: 1-5 mg/L) | 2 (2: 1-5 mg/L) | 2 (2: 1-5 mg/L) | 2 (2: 1-5 mg/L)
NC1=NN=C(COc2ccccc2)CS1 | 4 (4: <1 mg/L) | 2 (2: 5-20 mg/L) | 2 (2: 5-20 mg/L) | 4 (4: <0.2 mg/L) | 3 (3: 0.2-1 mg/L) | 4 (4: <0.2 mg/L) | 3 (3: 0.2-1 mg/L) | 3 (3: 0.2-1 mg/L) | 4 (4: <0.2 mg/L)
